# Data taken from US20230159510A1, “NOVEL PRMT5 INHIBITORS” (AMGEN INC., priority 2020, published 2023).
# How the values were obtained:
# [1] = system: HCT116 MTAP null cells; assay: HCT116 proliferation assay, MTAP null cells (CellTiter-Glo, 6 days); type: cell-based; details: HCT116-MTAP null, 144 h, read-out: Protif_ HCT116-MTAP null IC50
# Summary of the method: (§1)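 Cells were plated in RPMI 1640 with 10% fetal bovine serum and left overnight at 37° C and 5% CO2. Compound was then added as an 8- or 9-point 1:3 dilution series from a top concentration of 1 or 10 µM, alongside a DMSO-only control. Viability was read by luminescence.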
# [2] = system: HCT116 WT cells; assay: HCT116 proliferation assay, WT cells (CellTiter-Glo, 6 days); type: cell-based; details: Homo sapiens, HCT-116, 144 h, read-out: Prolif_HCT116-WT IC50
# Summary of the method: as §1
SMILES,IC50 [1] [µM],IC50 [2] [µM]
"C[C@H](c1cccc(F)n1)N(Cc1ccc(C(F)(F)F)cn1)C(=O)c1cnc2nc(N)c(Br)cc2c1 [Example 800, (R)-7-amino-6-bromo-N-(1-(6-fluoropyridin-2-yl)ethyl)-N-((5-(trifluoromethyl)pyridin-2-yl)methyl)-1,8-naphthyridine-3-carboxamide]",0.173,2.79
"Cc1cc2cc(C(=O)N(Cc3ccc(C(C)(C)O)cn3)[C@H](C)c3ncccn3)ccc2nc1N [Example 801, 2-amino-N-((5-(2-hydroxy-2-propanyl)-2-pyridinyl)methyl)-3-methyl-N-((1R)-1-(2-pyrimidinyl)ethyl)-6-quinolinecarboxamide]",0.533,> 10
"Cc1cc2cc(C(=O)N(Cc3ccc(C(F)(F)F)cn3)Cc3ncccc3F)c(Cl)cc2nc1N [Example 804, 2-amino-7-chloro-N-((3-fluoro-2-pyridinyl)methyl)-3-methyl-N-((5-(trifluoromethyl)-2-pyridinyl)methyl)-6-quinolinecarboxamide]",0.226,5.77
"Cc1cc2cc(C(=O)N(Cc3ccc(C(F)(F)F)cn3)C(c3ncccn3)C(C)C)ccc2nc1N (stereo not drawn) [Example 805, 2-amino-3-methyl-N-(2-methyl-1-(pyrimidin-2-yl)propyl)-N-((5-(trifluoromethyl)pyridin-2-yl)methyl)quinoline-6-carboxamide]",0.144,2
"Cc1cc2cc(C(=O)N(Cc3ccc(C(F)(F)F)cn3)C(C)c3cccc(C#N)n3)ccc2nc1N (stereo not drawn) [Example 806, 2-amino-N-(1-(6-cyanopyridin-2-yl)ethyl)-3-methyl-N-((5-(trifluoromethyl)pyridin-2-yl)methyl) quinoline-6-carboxamide]",0.552,6.8
"Cc1cc2cc(C(=O)N(Cc3cc(Cl)c(C#N)cn3)[C@H](C)c3ncccn3)ccc2nc1N [Example 807, (R)-2-amino-N-((4-chloro-5-cyanopyridin-2-yl)methyl)-3-methyl-N-(1-(pyrimidin-2-yl)ethyl)quinoline-6-carboxamide]",0.075,0.764
"C[C@H](c1ncccn1)N(Cc1ccc(C(F)(F)F)nn1)C(=O)c1cnc2nc(N)c(I)cc2c1 [Example 808, (R)-7-amino-6-iodo-N-(1-(pyrimidin-2-yl)ethyl)-N-((6-(trifluoromethyl)pyridazin-3-yl)methyl)-1,8-naphthyridine-3-carboxamide]",0.454,19.9
"Cc1cc2cc(C(=O)N(Cc3ccc(C(F)(F)F)cn3)[C@@H]3CCC[C@H]3OC(F)F)ccc2nc1N [Example 816, 2-amino-N-((1R,2R)-2-(difluoromethoxy)cyclopentyl)-3-methyl-N-((5-(trifluoromethyl)pyridin-2-yl)methyl)quinoline-6-carboxamide]",0.018,0.368
"Cc1cc2cc(C(=O)N(Cc3ccc(C4CC4)cn3)[C@H](C)c3ncccn3)ccc2nc1N [Example 821, (R)-2-amino-N-((5-cyclopropylpyridin-2-yl)methyl)-3-methyl-N-(1-(pyrimidin-2-yl)ethyl)quinoline-6-carboxamide]",0.019,0.371
"COC(=O)N1CCC(c2ccc(CN(C(=O)c3ccc4nc(N)c(C)cc4c3)[C@H](C)c3ncccn3)nc2)CC1 [Example 822, methyl (R)-4-(6-((2-amino-3-methyl-N-(1-(pyrimidin-2-yl)ethyl)quinoline-6-carboxamido)methyl)pyridin-3-yl)piperidine-1-carboxylate]",0.045,0.763
"Cc1cc2cc(C(=O)N(Cc3ccc(N4CCOCC4)nn3)[C@H](C)c3ncccc3F)ccc2nc1N [Example 823, 2-Amino-N-((1R)-1-(3-fluoro-2-pyridinyl)ethyl)-3-methyl-N-((6-(4-morpholinyl)-3-pyridazinyl)methyl)-6-quinolinecarboxamide]",0.041,0.695
"CNc1ccc(CN(C(=O)c2ccc3nc(N)c(C)cc3c2)[C@H](C)c2ncccc2F)nn1 [Example 824, 2-Amino-N-((1R)-1-(3-fluoro-2-pyridinyl)ethyl)-3-methyl-N-((6-(methylamino)-3-pyridazinyl)methyl)-6-quinolinecarboxamide]",0.607,> 10
"N#Cc1ccc(CN(C(=O)c2ccc3nc(N)c(Br)cc3c2)C2CCCC2C#N)nc1 (stereo not drawn) [Example 827, 2-amino-3-bromo-N-(2-cyanocyclopentyl)-N-((5-cyanopyridin-2-yl)methyl)quinoline-6-carboxamide]",0.88,> 1
"N#CC1(CN(Cc2ccc(C(F)(F)F)cn2)C(=O)c2ccc3nc(N)c(Br)cc3c2)CC1 [Example 828, 2-amino-3-bromo-N-((1-cyanocyclopropyl)methyl)-N-((5-(trifluoromethyl)pyridin-2-yl)methyl)quinoline-6-carboxamide]",0.91,> 10
"CO[C@@H]1COCC[C@H]1N(Cc1ccc(C(F)(F)F)cn1)C(=O)c1ccc2nc(N)c(Br)cc2c1 [Example 829, 2-amino-3-bromo-N-((3S,4R)-3-methoxytetrahydro-2H-pyran-4-yl)-N-((5-(trifluoromethyl)pyridin-2-yl)methyl) quinoline-6-carboxamide]",0.84,> 10
"CC1COCCC1N(Cc1ccc(C(F)(F)F)cn1)C(=O)c1ccc2nc(N)c(Br)cc2c1 (stereo not drawn) [Example 830, 2-amino-3-bromo-N-(3-methyltetrahydro-2H-pyran-4-yl)-N-((5-(trifluoromethyl)pyridin-2-yl)methyl)quinoline-6-carboxamide]",0.38,> 10
"CC1CCCC1N(Cc1ccc(C(F)(F)F)cn1)C(=O)c1ccc2nc(N)c(Br)cc2c1 (stereo not drawn) [Example 831, 2-amino-3-bromo-N-(2-methylcyclopentyl)-N-((5-(trifluoromethyl)pyridin-2-yl)methyl)quinoline-6-carboxamide]",0.44,> 10
"Nc1nc2ccc(C(=O)N(Cc3ccc(C(F)(F)F)cn3)C3CCOC3C3CC3)cc2cc1Br (stereo not drawn) [Example 832, 2-amino-3-bromo-N-(2-cyclopropyltetrahydrofuran-3-yl)-N-((5-(trifluoromethyl)pyridin-2-yl)methyl)quinoline-6-carboxamide]",0.38,> 10
"CC(C)CN(Cc1ccc(C(F)(F)F)cn1)C(=O)c1ccc2nc(N)c(-c3ccccc3)cc2c1 [Example 834, 2-Amino-N-(2-methylpropyl)-3-phenyl-N-((5-(trifluoromethyl)-2-pyridinyl)methyl)-6-quinolinecarboxamide]",0.523,3.19
"Cc1cc2cc(C(=O)N(Cc3ccc(C(F)(F)F)cn3)CC(C)C)c(O)cc2nc1N [Example 835, 2-Amino-7-hydroxy-3-methyl-N-(2-methylpropyl)-N-((5-(trifluoromethyl)-2-pyridinyl)methyl)-6-quinolinecarboxamide]",0.448,8.01
"N#CC[C@@H](C1CC1)N(Cc1ccc(C#N)cn1)C(=O)c1ccc2nc(N)c(I)cc2c1 [Example 837, (S)-2-amino-N-(2-cyano-1-cyclopropylethyl)-N-((5-cyanopyridin-2-yl)methyl)-3-iodoquinoline-6-carboxamide]",0.042,2.17
